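Tested at 5 concentrations; 48 h exposure; 96-well plates; endpoints linearly interpolated, else capped at highest concentration. At the GI50, growth is halved.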 Activity calls are given as the source filed them. No stated cut-off is given here; in the data, active = GI50 up to about 1.1 µM and inactive = higher.
Experiments:
Assay in all cases: inhibition of tumour cell growth, NCI panel, 48 h
[1] = tested on: HOP-92
[2] = tested on: SNB-75
[3] = tested on: NCI-H522
[4] = tested on: LOX IMVI
[5] = tested on: COLO 205
[6] = tested on: A498
[7] = tested on: IGROV-1
[8] = tested on: K562
[9] = tested on: RPMI-8226
[10] = tested on: UACC-257
[11] = tested on: KM12
[12] = tested on: HOP-62
[13] = tested on: EKVX
[14] = tested on: HT-29
[15] = tested on: U-251
[16] = tested on: CCRF-CEM
[17] = tested on: NCI/ADR-RES
[18] = tested on: MDA-N
[19] = tested on: MDA-MB-231

Row | Compound | GI50 [1] | GI50 [2] | GI50 [3] | GI50 [4] | GI50 [5] | GI50 [6] | GI50 [7] | GI50 [8] | GI50 [9] | GI50 [10] | GI50 [11] | GI50 [12] | GI50 [13] | GI50 [14] | GI50 [15] | GI50 [16] | GI50 [17] | GI50 [18] | GI50 [19]
1 | C=C(C)C1C/C=C(/C)CCCC2(CCC3=C(CC(C(=C)C)C/C=C(/C)CCC3)O2)C(=O)C1 (centres undefined) | > 100 µM (inactive) | > 100 µM (inactive) | > 100 µM (inactive) | > 100 µM (inactive) | > 100 µM (inactive) | > 100 µM (inactive) | > 100 µM (inactive) | > 100 µM (inactive) | > 100 µM (inactive) | > 100 µM (inactive) | > 100 µM (inactive) | > 100 µM (inactive) | > 100 µM (inactive) | > 100 µM (inactive) | > 100 µM (inactive) | > 100 µM (inactive) |  |  | 
2 | Nc1c(-c2ccc(-c3c(N)[n+]([O-])c4ccccc4[n+]3[O-])cc2)[n+]([O-])c2ccccc2[n+]1[O-] | > 100 µM (inactive) | 8.15 µM (inactive) | 1.6 µM (inactive) | 9.75 µM (inactive) | 10.1 µM (inactive) | 18.3 µM (inactive) | 17.7 µM (inactive) | 15.7 µM (inactive) | 23.8 µM (inactive) | 3.47 µM (inactive) | 11.1 µM (inactive) | 17.8 µM (inactive) | 31.8 µM (inactive) | 12.1 µM (inactive) | 14.7 µM (inactive) | 38.7 µM (inactive) |  |  | 
3 | OC(CCN1CCCCC1)(c1ccccc1)c1ccccc1 [PRIDINOL] | 32.4 µM (inactive) |  | > 100 µM (inactive) | > 100 µM (inactive) | > 100 µM (inactive) | > 100 µM (inactive) | > 100 µM (inactive) | > 100 µM (inactive) | 87.1 µM (inactive) |  | > 100 µM (inactive) | > 100 µM (inactive) | 79.6 µM (inactive) | 55 µM (inactive) | > 100 µM (inactive) | > 100 µM (inactive) | > 100 µM (inactive) | > 100 µM (inactive) | > 100 µM (inactive)
4 | [O-][Cl+3]([O-])([O-])[O-].c1ccc(-c2csc3c4ccccc4c4ccccc4[n+]23)cc1 | 4.41 µM (inactive) | 2.35 µM (inactive) | 1.67 µM (inactive) | 4.58 µM (inactive) | 2.25 µM (inactive) | 14.8 µM (inactive) | 3.95 µM (inactive) | 0.708 µM (active) | 4.55 µM (inactive) | 1.08 µM (active) | 1.47 µM (inactive) | 7.1 µM (inactive) | 8.79 µM (inactive) | 4.15 µM (inactive) | 2.45 µM (inactive) | 2.25 µM (inactive) |  |  | 
5 | O=c1ncccn1[C@@H]1O[C@H](CO)[C@H](O)C1O (some centres undefined) | > 71.3 µM (inactive) | 53.8 µM (inactive) | > 88.5 µM (inactive) | > 61.8 µM (inactive) | > 88.7 µM (inactive) | > 100 µM (inactive) | > 100 µM (inactive) | 52.4 µM (inactive) | > 74.5 µM (inactive) | > 100 µM (inactive) | > 100 µM (inactive) | 68.2 µM (inactive) | > 100 µM (inactive) | > 95.1 µM (inactive) | > 100 µM (inactive) | 49 µM (inactive) |  |  | 
6 | N#CCC(=O)NC1C2CC3CC(C2)CC1C3 (centres undefined) | 18.3 µM (inactive) | 17.2 µM (inactive) | 17.1 µM (inactive) | 10.7 µM (inactive) | 19.3 µM (inactive) | 16.5 µM (inactive) | 25.4 µM (inactive) | 26.5 µM (inactive) | 34.6 µM (inactive) | 20.9 µM (inactive) | 17.7 µM (inactive) | 23.4 µM (inactive) | 18.9 µM (inactive) | 18.5 µM (inactive) | 16.2 µM (inactive) | 18.7 µM (inactive) |  |  | 
7 | CCCCC(C)C(OC(=O)CC(CC(=O)O)C(=O)O)C(CC(C)CC(O)CCCCC(O)CC(O)C(C)N)OC(=O)CC(CC(=O)O)C(=O)O (centres undefined) | > 65.8 µM (inactive) | > 78.3 µM (inactive) | > 100 µM (inactive) | > 100 µM (inactive) | > 100 µM (inactive) | > 100 µM (inactive) | > 100 µM (inactive) | > 100 µM (inactive) | > 100 µM (inactive) | > 100 µM (inactive) | > 100 µM (inactive) | > 100 µM (inactive) | > 100 µM (inactive) | > 100 µM (inactive) | > 100 µM (inactive) | > 100 µM (inactive) |  |  | 
8 | CC(=O)NC(CCCCNC(=O)N(C)N=O)C(=O)NCc1ccccc1 (centres undefined) | > 100 µM (inactive) | 43.4 µM (inactive) | > 100 µM (inactive) | > 100 µM (inactive) | > 100 µM (inactive) | > 100 µM (inactive) | > 100 µM (inactive) | > 100 µM (inactive) | > 100 µM (inactive) | > 100 µM (inactive) | > 100 µM (inactive) | > 100 µM (inactive) | > 100 µM (inactive) | > 100 µM (inactive) | > 100 µM (inactive) | > 100 µM (inactive) |  |  | 
9 | NNC(=O)/C(=C/c1ccc(Cl)cc1Cl)NC(=O)c1ccccc1 | > 100 µM (inactive) | > 100 µM (inactive) | > 100 µM (inactive) | > 100 µM (inactive) | > 100 µM (inactive) | > 100 µM (inactive) | > 100 µM (inactive) | 71.4 µM (inactive) | 86.7 µM (inactive) | > 100 µM (inactive) | > 100 µM (inactive) | > 100 µM (inactive) | < 0.01 µM (active) | > 100 µM (inactive) | > 100 µM (inactive) | 79.8 µM (inactive) |  |  | 
10 | Cn1ncc2c(NCc3ccccc3)ncnc21 |  | 50.6 µM (inactive) |  | > 100 µM (inactive) | > 100 µM (inactive) | > 100 µM (inactive) | > 100 µM (inactive) | > 100 µM (inactive) | > 100 µM (inactive) | > 100 µM (inactive) | > 100 µM (inactive) | > 100 µM (inactive) | > 100 µM (inactive) | > 100 µM (inactive) | > 100 µM (inactive) | > 100 µM (inactive) | > 100 µM (inactive) | > 100 µM (inactive) | > 100 µM (inactive)
11 | CSCCC(C(=O)O)N(CC1(O)OCC(O)C(O)C1O)N=O (centres undefined) | > 100 µM (inactive) | > 100 µM (inactive) | > 100 µM (inactive) | > 100 µM (inactive) | > 100 µM (inactive) | > 100 µM (inactive) | > 100 µM (inactive) | > 100 µM (inactive) | > 100 µM (inactive) | > 100 µM (inactive) | > 100 µM (inactive) | > 100 µM (inactive) | > 100 µM (inactive) | > 100 µM (inactive) | > 100 µM (inactive) | > 100 µM (inactive) |  |  | 
12 | CCCCCN(CCCCC)C(=O)[C@@H](CCC(=O)O)NC(=O)c1cc2ccccc2[nH]1 | 25.6 µM (inactive) | 12.3 µM (inactive) | 13.5 µM (inactive) | 59.3 µM (inactive) | 30.9 µM (inactive) | > 100 µM (inactive) | 44 µM (inactive) | 36.5 µM (inactive) | 16 µM (inactive) | 49.4 µM (inactive) | 39.3 µM (inactive) | 32.2 µM (inactive) | 48.1 µM (inactive) | 46.6 µM (inactive) | 29.1 µM (inactive) | 22.8 µM (inactive) |  |  | 

From ChEMBL document CHEMBL1201862, “PubChem BioAssay data set” (2004)
